{"source": "paper PMC8825254", "about": "“Rational design of Striga hermonthica-specific seed germination inhibitors” (Plant Physiology, 2021)", "key": {"ShHTL5": {"biological_target": "ShHTL5 (Striga hermonthica, UniProt A0A0M5I297)", "sequence (A0A0M5I297 entry or part of it)": "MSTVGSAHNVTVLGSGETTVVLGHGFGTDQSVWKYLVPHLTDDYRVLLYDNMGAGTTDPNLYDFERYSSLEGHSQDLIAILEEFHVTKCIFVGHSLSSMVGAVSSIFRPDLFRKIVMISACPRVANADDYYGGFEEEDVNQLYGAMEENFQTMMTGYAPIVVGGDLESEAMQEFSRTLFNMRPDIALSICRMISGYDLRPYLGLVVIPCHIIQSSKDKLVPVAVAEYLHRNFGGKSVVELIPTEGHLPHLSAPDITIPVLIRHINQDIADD", "test": "YLG hydrolysis competition assay with ShHTL5", "assay_type": "biochemical"}, "[1]": {"tested_on": "Rice seeds (cv Nipponbare)", "test": "Rice germination and seedling growth in response to inhibitors", "assay_type": "in vivo, rice (Oryza sativa)", "conditions": "result in words", "protocol": "Rice seeds (cv Nipponbare) were surface sterilized in 2.5% NaClO and 0.05% of Tween-20 for 10 min, and rinsed 6 times with sterilized MilliQ water. Seeds were imbibed in sterilized water at 30°C for 24 h in the dark. Next day, ∼3 mL of each inhibitor at different concentrations (3, 6, 12, 25, 50, and 100 μM) was added along with 0.5 Murashige and Skoog (MS) medium into 24-well plate, and one imbibed rice seed was placed in each well. The experiment was performed in six replications (one plant/well, n = 6) for each concentration. Nontreated rice seeds in 0.5-MS solution were included as a control. Seeds were allowed to germinate at 30°C in the dark for 48 h for monitoring seeds germination, and seeds were moved to a growth chamber with white fluorescent light (130–180 μM m^−2 s^−1) and12 h:12 h (Light/Dark (L/D)) period at 28°C. After 1 week, length of rice seedlings was measured and recorded, and pictures of seedlings were taken."}, "Rice d17 seedlings": {"tested_on": "Rice d17 seedlings", "test": "Rice micro tillering assay, SL-deficient mutant d17 with GR24", "assay_type": "in vivo, rice (Oryza sativa)", "conditions": "compound with 1.0 µM GR24; result in words", "protocol": "Rice seeds of WT (cv Nipponbare) or SL-deficient mutant (d17), were surface sterilized with 2.5% NaClO and 0.05% of Tween-20 for 10 min, and rinsed 6 times with sterilized MilliQ water. About 30 seeds were placed on sterilized Magenta GA-7 plant culture box containing 0.5% MS medium with 0.4% agar and incubated at 30°C in dark. After 2 d, boxes were moved to a growth chamber and allowed to grow for another 5 d under fluorescent white light (130–180 μM m^−2 s^−1). Equally grown seedlings were transplanted in 50-mL black tubes filled with Hoagland nutrient solution (1 seedling/tube). Seedlings were treated with 10, 50, and 100 µM of each compound (KK023-N1, Triton X-100, and KK094). The compounds were applied twice a week for 2 weeks to test their effects on the growth of WT plants. SL-deficient seedlings (d17) were treated as WT but with the addition of 1 µM GR24. Number of tillers per plant, plant height, and dry biomass were measured at final harvest."}, "Striga hermonthica": {"tested_on": "Striga hermonthica", "test": "Striga emergence study in infested rice pots under greenhouse conditions", "assay_type": "in vivo, Striga hermonthica on rice cv IAC165", "conditions": "for Striga emergence, average number: twice per week for 4 weeks, 10 weeks after rice planting, mock 26 per pot; for Change in Striga emergence compared to mock: Figure 10B; for Rice plant height, change: Striga-infested pots, Figure 10C", "protocol": "Approximately 6,000 Striga seeds (20 mg) were weighed, mixed with sand/soil mixture (1:2 ratio), and put into a 3-L perforated plastic pot containing 0.5-L clean sand/soil mixture in the bottom. The pots were kept under greenhouse-controlled conditions at 30°C and kept moist with water for Striga preconditioning for 10 d. Formulated KK023-N1 and Triton X-100 were applied (at 100 mL per pot) at 10 and 100 µM concentration. Then three rice seedlings (cv IAC165, 10 d old) were planted in each pot after 24 h of inhibitor application. All the treatments were applied continuously twice per week for 4 weeks. Water with same amount of solvent (Cyclohexanone+Atlas-G) was used as a control. Pots were irrigated with 200 mL of Hoagland’s nutrient solution with low phosphate (4 µM) when needed. The rice plants were allowed to grow under greenhouse conditions for 10 weeks and the emerged Striga plants were counted from each pot. The height of rice plants was also measured to see impact of Striga infestation on host growth."}}, "data": [{"smiles": "COc1ccc(CCCc2cccc3c2CCN3C(=O)n2ccnn2)cc1", "note": "[KK023-N1]", "values": [{"measurement": "inhibition at 50 µM", "setting": "ShHTL5; 1 h, 50 µM compound, read-out: Reduction of ShHTL5 hydrolysis activity", "value": 20, "unit": "%"}, {"measurement": "IC50", "setting": "ShHTL5; read-out: IC50, ShHTL5-mediated YLG hydrolysis", "value": "> 50", "unit": "µM"}, {"measurement": "Effect on YLG hydrolysis by ShHTL5", "setting": "ShHTL5; result in words", "value": "did not influence the YLG hydrolysis"}, {"measurement": "Effect on rice seedling plant height", "setting": "[1]; all treatments (3-100 µM), 1 week", "value": "no effect on plant height was observed"}, {"measurement": "Effect on rice seed germination", "setting": "[1]; up to 100 µM", "value": "did not detect any effect on seed germination"}, {"measurement": "Phenotype of treated rice seedlings versus control", "setting": "[1]; up to 100 µM", "value": "did not show any significant phenotypic difference"}, {"measurement": "Effect on GR24 action on tillering of d17 rice", "setting": "Rice d17 seedlings", "value": "did not block the GR24 effect on rice tillers"}, {"measurement": "Striga emergence, average number", "setting": "Striga hermonthica; 10 µM", "value": 20, "unit": "Striga plants per pot"}, {"measurement": "Change in Striga emergence compared to mock", "setting": "Striga hermonthica; 10 µM", "value": -24, "unit": "%"}, {"measurement": "Rice plant height, change", "setting": "Striga hermonthica; 10 µM", "value": "+17%"}, {"measurement": "Striga emergence, average number", "setting": "Striga hermonthica; 100 µM", "value": 16, "unit": "Striga plants per pot"}, {"measurement": "Change in Striga emergence compared to mock", "setting": "Striga hermonthica; 100 µM", "value": 38, "unit": "%"}, {"measurement": "Rice plant height, change", "setting": "Striga hermonthica; 100 µM", "value": "+26%"}]}]}
